Experimental data reported in patent US11549123B2, “Plant EPSP synthases and methods of use” (PIONEER HI-BRED INTERNATIONAL, INC., priority 2015, dated 2023).

Key:
[1] = molecular target: T1, Zea mays EPSPS variant Zm-H6 (868-H6) with A69V (H6-A69V) (Zea mays, UniProt O24566, A1R/A3W/A415G/A68V/A71Q/D401G/E301S/E390G/G101A/I207L/K83R/L97C/T278A/T360S/T440Q/V437R); assay: Rapid two-rate method for (kcat/KM)*KI, H6-A69V; assay type: biochemical; conditions: [E] 0.07 uM, [Gly] 1000 uM
T1 sequence (O24566 with tags, fused parts or gaps A1R/A3W/A68V/A71Q/K83R/L97C/G101A/I207L/T278A/E301S/T360S/E390G/D401G/A415G/V437R/T440Q): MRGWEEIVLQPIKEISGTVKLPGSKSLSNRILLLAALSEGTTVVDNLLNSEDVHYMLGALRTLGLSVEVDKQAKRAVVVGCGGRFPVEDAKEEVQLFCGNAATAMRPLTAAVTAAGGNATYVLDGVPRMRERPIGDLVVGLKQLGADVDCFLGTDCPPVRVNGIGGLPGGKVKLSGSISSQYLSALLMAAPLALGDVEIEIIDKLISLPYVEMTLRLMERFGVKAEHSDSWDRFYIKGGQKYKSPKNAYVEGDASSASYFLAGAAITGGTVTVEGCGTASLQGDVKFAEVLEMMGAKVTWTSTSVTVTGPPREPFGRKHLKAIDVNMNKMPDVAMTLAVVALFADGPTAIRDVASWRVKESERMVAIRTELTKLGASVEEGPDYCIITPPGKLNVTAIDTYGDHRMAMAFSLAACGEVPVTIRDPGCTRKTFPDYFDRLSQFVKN
Excerpt: There are several practical considerations for accurately estimating (kcat/KM)*KI with the rapid method. […] 2) The inhibitor concentration must be adjusted so as to obtain a degree of inhibition that minimally amplifies the error in the term v0-vi in Equation 3. If inhibition is too little, v0-vi will be small, and the error in the multiplier vi×v0/(v0-vi) will be large. […] 3) Substrate concentration should be set at the approximate KM of the parental variant(s), subject to the sensitivity of the assay. High substrate concentration obscures sensitivity to the inhibitor and reduces stringency for capturing improvements in KM. Depending on the necessity for speed, there exists opportunity for customizing enzyme and inhibitor concentrations. […] The rapid method was repeated for those and obtained data that correlated better with data obtained by substrate saturation analysis. For screening purposes however, that correlation step is not necessary. Conditions can be set so that variants with a pre-determined minimal fitness level are accurately quantified.
In Table 15, parameters above the heavy line for the rapid method were obtained under standard conditions. For variants shown below the heavy line, the rapid analysis was repeated with enzyme or glyphosate concentrations adjusted as needed to generate sufficient signal within the limits for linear initial rates.

[2] = test system: Arabidopsis thaliana Col-0; assay: Glyphosate spray (Touchdown) tolerance of Arabidopsis transformed with maize EPSPS constructs; assay type: in vivo
[3] = molecular target: Zea mays EPSPS variant 224R 249V (Zea mays, UniProt O24566, K223R/Y248V); assay: EPSPS reaction rate with or without 10 uM glyphosate, 224R 249V; assay type: biochemical; conditions: pH 7; read-out: Reaction rate with 10 μM glyph, % no glyph; note: 50 µM PEP and S3P
Zea mays EPSPS variant 224R 249V, sequence (O24566 entry or part of it K223R/Y248V): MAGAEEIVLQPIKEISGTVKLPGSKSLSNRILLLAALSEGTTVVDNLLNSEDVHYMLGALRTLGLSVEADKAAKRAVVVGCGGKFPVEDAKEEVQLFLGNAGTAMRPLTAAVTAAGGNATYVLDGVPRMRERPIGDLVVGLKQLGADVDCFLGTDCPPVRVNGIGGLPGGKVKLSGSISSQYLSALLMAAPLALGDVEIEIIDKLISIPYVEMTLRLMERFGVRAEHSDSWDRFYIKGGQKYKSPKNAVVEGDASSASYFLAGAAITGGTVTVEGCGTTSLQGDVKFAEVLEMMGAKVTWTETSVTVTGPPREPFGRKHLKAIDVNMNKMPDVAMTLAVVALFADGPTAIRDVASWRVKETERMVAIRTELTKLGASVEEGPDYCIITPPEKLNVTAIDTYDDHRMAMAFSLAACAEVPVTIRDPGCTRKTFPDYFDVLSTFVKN

[4] = molecular target: Zea mays EPSPS variant 868-H6 (A2R, A4W, A72Q, K84R, L98C, G102A, I208L, T279A, E302S, T361S, E391G, D402G, A416G, V438R, T441Q), SEQ ID NO:5 (Zea mays, UniProt O24566, A1R/A3W/A415G/A71Q/D401G/E301S/E390G/G101A/I207L/K83R/L97C/T278A/T360S/T440Q/V437R); assay: EPSPS substrate saturation kinetics, 868-H6; assay type: biochemical
Protocol: EPSPS activity was determined by quantifying the phosphate generated from the EPSPS reaction. Release of inorganic phosphate was coupled to reaction with 2-amino-6-mercapto-7-methylpurine ribonucleoside, catalyzed by purine-nucleoside phosphorylase (M R Webb, Proc. Natl. Acad. Sci. 89:4884-4887, 1992). The absorbance change that occurs was monitored at 360 nm, where the extinction is 11,200 M^−1 cm^−1, with a Spectramax plate reader (Molecular Devices). To determine kinetic parameters, the varied substrate was present at seven concentrations (the eighth being the blank, containing no substrate) ranging from 4 to 400 uM and the unvaried substrate present at saturation. […] Reactions were monitored with a Spectramax plate reader. […] KI was then calculated from the following form of the Michaelis-Menten equation for competitive inhibition: KI=KM[I]/(KM app−KM) KM approximates the dissociation constant of the enzyme-substrate complex while kcat is the rate of conversion of substrate to product when the substrate concentration is saturating. kcat/KM is a widely accepted parameter for catalytic efficiency when substrate concentration is low (˜KM). […] The parameter kcat/KM×KI is used to quantify both catalytic efficiency and insensitivity and thus the overall fitness of the enzyme. […]

[5] = molecular target: Zea mays EPSPS variant 208V 313G (Zea mays, UniProt O24566, E312G/I207V); assay: EPSPS reaction rate with or without 10 uM glyphosate, 208V 313G; assay type: biochemical; conditions: pH 7; read-out: Reaction rate with 10 μM glyph, % no glyph; note: 50 µM PEP and S3P
Zea mays EPSPS variant 208V 313G, sequence (O24566 1-444 I207V/E312G): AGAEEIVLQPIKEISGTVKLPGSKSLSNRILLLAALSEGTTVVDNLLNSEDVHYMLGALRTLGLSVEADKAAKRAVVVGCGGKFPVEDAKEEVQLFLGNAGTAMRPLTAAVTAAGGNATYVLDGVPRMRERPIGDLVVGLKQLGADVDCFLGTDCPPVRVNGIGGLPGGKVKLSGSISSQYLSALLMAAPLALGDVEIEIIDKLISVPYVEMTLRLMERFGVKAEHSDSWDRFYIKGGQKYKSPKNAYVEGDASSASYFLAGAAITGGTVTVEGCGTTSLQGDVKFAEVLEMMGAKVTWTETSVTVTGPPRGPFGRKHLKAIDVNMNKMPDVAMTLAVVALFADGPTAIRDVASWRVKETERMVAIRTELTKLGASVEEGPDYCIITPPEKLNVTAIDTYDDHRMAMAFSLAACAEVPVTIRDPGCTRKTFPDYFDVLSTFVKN

In the case of `O=C(O)CNCP(=O)(O)O` [glyphosate, N-phosphonomethylglycine], the “(kcat/KM)*KI” value [1] is reported as 2977, the “plant injury and growth inhibition compared to unsprayed controls” value ([2]; plants transformed with UbiQ10 promoter and H6 variant) is reported as “no visible injury or growth inhibition” and the growth after treatment ([2]; untransformed plants, 1.26 kg/Ha spray) is reported as “did not grow at all”. For the same compound, the plant injury ([2]; untransformed plants, 1.26 kg/Ha spray, by 10 days) was “chlorosis and imminent necrosis”, the activity at 10 µM [3] was 3.09% and the Ki [4] was 629 µM. For the same compound, the “(kcat/KM)*KI” value ([4]; PEP as substrate, glyphosate as inhibitor) was 10070 and the activity at 10 µM [5] was 3.21%.
